Test results from PubChem BioAssay (NCI).
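Compound exposure: 48 hours, 5 concentrations, 96-well plates. The concentration for full growth arrest is given as TGI.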

What was measured:
Assay in all cases: NCI tumour cell line growth inhibition, 48 h
HOP-18 NSCLC = test system: HOP-18 NSCLC
DMS 114 small cell lung = test system: DMS 114 small cell lung
SN12K1 renal = test system: SN12K1 renal
P388 leukemia = test system: P388 leukemia
M19-MEL melanoma = test system: M19-MEL melanoma
DLD-1 colon = test system: DLD-1 colon
KM20L2 colon = test system: KM20L2 colon
SNB-78 CNS = test system: SNB-78 CNS
P388/ADR leukemia = test system: P388/ADR leukemia
DMS 273 small cell lung = test system: DMS 273 small cell lung
LXFL 529 NSCLC = test system: LXFL 529 NSCLC
XF 498 CNS = test system: XF 498 CNS

SMILES | TGI (HOP-18 NSCLC) [µM] | TGI (DMS 114 small cell lung) [µM] | TGI (SN12K1 renal) [µM] | TGI (P388 leukemia) [µM] | TGI (M19-MEL melanoma) [µM] | TGI (DLD-1 colon) [µM] | TGI (KM20L2 colon) [µM] | TGI (SNB-78 CNS) [µM] | TGI (P388/ADR leukemia) [µM] | TGI (DMS 273 small cell lung) [µM] | TGI (LXFL 529 NSCLC) [µM] | TGI (XF 498 CNS) [µM]
COc1cc2c(cc1OC)-c1c3c(cc4c1[C@@H](C2)N(C)CC4)OCO3 | 52 | 24.8 | 22.3 | 27.1 | 24.1 | 49.5 | 31.9 | 43.9 | 23.3 | 14.5 |  | 
CC1(C)C2CCC3(C2)CS(=O)(=O)N2OC231 (configuration not stated) | 32.1 | 26.8 |  |  | 29.8 | 47.5 | 30.6 | 47.2 |  | 58.5 | 30.6 | 
O=C(OC[C@H]1O[C@@H](OC(=O)c2cc(O)c(O)c(O)c2)[C@H](OC(=O)c2cc(O)c(O)c(O)c2)[C@@H](OC(=O)c2cc(O)c(O)c(O)c2)[C@@H]1OC(=O)c1cc(O)c(O)c(O)c1)c1cc(O)c(O)c(O)c1 | > 100 | 15.9 |  |  | 83.2 | 22.5 | > 100 | 80.3 |  | 7.07 | > 100 | 22.5
OC12CC/C(=N/OCc3ccccc3)CC1c1ccccc12 (configuration not stated) | > 100 | > 100 |  |  | > 100 | > 100 | > 100 | > 100 |  | > 100 | > 100 | 
N#CC(NNC(=O)c1ccccc1O)c1cccc(O)c1 (configuration not stated) | > 100 | 11.1 |  |  |  | > 100 | > 100 | > 100 |  | > 100 | > 100 | 
